Legend:
CK1α = biological target: T1, CK1α (Homo sapiens, UniProt P48729+Q96SW2); assay: CK1α NanoBiT assay (HiBiT-tagged CSNK1A1 in HEK293 clonal line); assay type: cell-based; settings: HEK293 HiBiT-CSNK1A1/LgBiT cells, 24 h incubation, luminescence
T1 construct: HEK293 clonal line with CRISPR KI HiBiT tag on CSNK1A1; host or cells: HEK293 clonal line, CRISPR HiBiT knock-in at CSNK1A1, stably expressing LgBiT
How it was run: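 HiBiT knock-in CSNK1A1 HEK293 cells stably expressing LgBiT were plated at 5000 cells/well in DMEM/10% FBS with 0.2% Endurazine live-cell substrate and pre-incubated 16 h. Compound was added to a final […] for 24 h at 37 °C before the luminescence read. Signal was normalised to plate controls, and DC50 came from a 3-parameter logistic fit (hillslope 1).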

GP2D = assay: GI50 growth inhibition, CyQUANT, GP2D; assay type: cell-based; settings: GP2D cells, 120 to 168 hours
Protocol: (§1) SKCO1, LS180, and LS174T cell lines were purchased from ATCC. CW2 cell line was purchased from Riken. GP2D cell line was purchased from Sigma/ECACC. All cell lines were cultured in manufacturer's recommended media at 37° C., 5% CO2. Briefly, cells were suspended in 200 μL of media and seeded at 300 to 1,800 cells per well in tissue culture treated 96-well plates with black walls and clear bottom. Plates were incubated overnight and initial (T0) read was performed the following day using CyQUANT Direct Cell Proliferation Assay Kit (Thermo Fisher Scientific) according to manufacturer's protocol. All compounds were solubilized in DMSO and prepared at 3-fold serial dilution, using 9 points starting at 30 μM as highest concentration, administered to cells and incubated for 120 to 168 hours, at which point CyQUANT assay measurement was performed using Acumen Cellista instrument (Ex/Em 480/520 nm). Media-only wells were used as blank, and 0.3% DMSO was used as DMSO-treated cell control. Growth inhibition (percent response) was calculated using the following formula in Excel: “=if ([Compound treated Day N]>[Untreated Day 0, AVG], ([Compound treated Day N]−[Untreated Day 0, AVG])/([Untreated Day N]−[Untreated Day 0, AVG])*100, ([Compound Treated Day N]−[Untreated Day 0, AVG])/([Untreated Day 0, AVG])*100)”. GI50 is the response corresponding to the 50% of untreated control.
(§2) GI50 data are reported in Tables 4a, 4b, 4c, 4d, and 4e for compounds in Table 1. In Tables 4a, 4b, 4c, 4d, and 4e below, According to the code, A represents a GI50 value of ≤0.1 μM, B represents a GI50 value>0.1 μM and ≤1 μM, C represents an GI50 value>1 μM.

CW2 = assay: GI50 growth inhibition, CyQUANT, CW2; assay type: cell-based; settings: Homo sapiens, CW-2, CW2 cells, 120 to 168 hours
Protocol: as §1, §2

LS180 = assay: GI50 growth inhibition, CyQUANT, LS180; assay type: cell-based; settings: Homo sapiens, LS180 cells, 120 to 168 hours
Protocol: as §1, §2

SKCO1 = assay: GI50 growth inhibition, CyQUANT, SKCO1; assay type: cell-based; settings: Homo sapiens, SK-CO-1, SKCO1 cells, 120 to 168 hours
Protocol: as §1, §2

CRBN/DDB1 = CRBN/DDB1 (Homo sapiens, UniProt Q96SW2); assay: HTRF binding assay (thalidomide probe displacement from CRBN/DDB1); settings: CRBN/DDB1 2.5 nM, Cy5-Thalidomide 100 nM, 30 min; geometric mean; read-out: HTRF_Thali_Disp_DR—geo_IC50
Sequence of CRBN/DDB1 (Q96SW2 whole entry): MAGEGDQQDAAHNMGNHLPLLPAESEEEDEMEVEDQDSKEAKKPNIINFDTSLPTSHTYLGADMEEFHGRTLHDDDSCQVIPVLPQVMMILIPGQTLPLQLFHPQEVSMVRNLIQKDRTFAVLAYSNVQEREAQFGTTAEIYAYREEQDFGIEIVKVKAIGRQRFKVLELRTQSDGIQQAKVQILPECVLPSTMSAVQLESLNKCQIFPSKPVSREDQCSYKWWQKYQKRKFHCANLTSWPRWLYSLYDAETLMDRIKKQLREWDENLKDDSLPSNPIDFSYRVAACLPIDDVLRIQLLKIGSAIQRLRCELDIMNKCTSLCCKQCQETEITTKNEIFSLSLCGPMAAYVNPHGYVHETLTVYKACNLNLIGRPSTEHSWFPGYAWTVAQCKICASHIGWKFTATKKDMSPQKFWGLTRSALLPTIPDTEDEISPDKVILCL
Sequence of CRBN/DDB1 (Q16531 whole entry partner): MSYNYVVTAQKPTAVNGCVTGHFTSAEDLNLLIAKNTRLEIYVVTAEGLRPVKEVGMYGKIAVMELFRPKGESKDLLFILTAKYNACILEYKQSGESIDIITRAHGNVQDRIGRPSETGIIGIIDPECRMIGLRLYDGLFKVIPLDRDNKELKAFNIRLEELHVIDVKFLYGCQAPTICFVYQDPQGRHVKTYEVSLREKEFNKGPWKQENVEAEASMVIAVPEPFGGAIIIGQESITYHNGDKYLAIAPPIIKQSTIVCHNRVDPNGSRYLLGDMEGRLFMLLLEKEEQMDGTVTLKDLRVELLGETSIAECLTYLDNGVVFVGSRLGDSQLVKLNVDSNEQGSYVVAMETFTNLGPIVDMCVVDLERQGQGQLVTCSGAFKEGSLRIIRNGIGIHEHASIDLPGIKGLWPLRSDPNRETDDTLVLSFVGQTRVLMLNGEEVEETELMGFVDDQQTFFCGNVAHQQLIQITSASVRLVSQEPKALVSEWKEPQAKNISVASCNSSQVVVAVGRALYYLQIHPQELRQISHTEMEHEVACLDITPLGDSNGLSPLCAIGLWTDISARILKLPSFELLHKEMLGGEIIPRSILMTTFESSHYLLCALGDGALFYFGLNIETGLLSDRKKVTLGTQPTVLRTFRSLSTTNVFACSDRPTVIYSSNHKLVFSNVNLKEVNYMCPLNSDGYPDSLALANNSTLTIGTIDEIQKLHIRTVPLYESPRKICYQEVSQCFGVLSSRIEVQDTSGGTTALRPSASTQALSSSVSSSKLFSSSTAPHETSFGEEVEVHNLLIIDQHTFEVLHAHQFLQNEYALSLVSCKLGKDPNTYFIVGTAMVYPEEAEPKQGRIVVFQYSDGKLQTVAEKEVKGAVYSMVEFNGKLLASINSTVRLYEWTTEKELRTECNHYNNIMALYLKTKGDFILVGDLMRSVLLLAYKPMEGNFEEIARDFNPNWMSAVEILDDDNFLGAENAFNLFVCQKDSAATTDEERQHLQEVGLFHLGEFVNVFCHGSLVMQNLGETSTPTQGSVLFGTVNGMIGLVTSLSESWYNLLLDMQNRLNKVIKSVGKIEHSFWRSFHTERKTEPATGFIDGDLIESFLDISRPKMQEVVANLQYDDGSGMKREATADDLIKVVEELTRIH
Text: Binding of test compounds to CRBN/DDB1 was monitored in an HTRF assay using 1-[5-({2-[2-(2-{[2-(2,6-dioxopiperidin-3-yl)-1,3-dioxo-2,3-dihydro-1H-isoindol-4-yl]oxy}acetamido)ethoxy]ethyl}carbamoyl)pentyl]-3,3-dimethyl-2-[(1E,3E)-5-[(2E)-1,3,3-trimethyl-5-sulfo-2,3-dihydro-1H-indol-2-ylidene]penta-1,3-dien-1-yl]-3H-indol-1-ium-5-sulfonate as a fluorescent probe. In this assay, compounds displace the fluorescently labeled thalidomide-based probe bound to CRBN and fluorescence is monitored with increasing compound concentration. Assays were conducted in Greiner white 384 well HiBase plates (Cat. No 784075-25) in 10 μL total volume. A one pot detection solution of CRBN/DDB1 (2.5 nM), anti-His Terbium Cryptate Gold (1×, PerkinElmer Cat. #: 61HI2TLB), and Cy5-Thalidomide (100 nM, Tenova Cat.: T52461) was prepared in 20 mM HEPES, 20 mM NaCl, 0.2 mM TCEP, 0.2 mM EDTA, and 0.005% Tween20 was dispensed to each assay plate. Test compounds were stored in dry, ambient temperatures at 10 mM. A 10-point, 1:3 dilution series was prepared from 10 mM stock concentrations in Echo-compatible LDV plates. 10 nL of each compound dilution series was dispensed into assays wells using an Echo 650 (Labcyte inc. USA). 10 nL of 10 mM lenalidomide (Selleckchem Cat no. S1029) was transferred into the active-control wells for the assay and 10 nL of DMSO was transferred into the negative control wells. The assay was then allowed to incubate for 30 min at ambient temperature after transferring the test compounds. Plate measurements were taken on a Pherastar FSX (BMG Labtech, Germany) using the HTRF Red filter (Ex. 337 nm, eml: 620 nm, em2: 665 nm) (Flashes: 50, Integration time: 60-400 μs, Z-height: 10 mm, Ratio-multiplier: 10,000). Analysis, HTRF ratio and IC50 values were derived using KNIME analytics (KNIME Zurich) transformation and fitting within Collaborative Drug Discovery (Collaborative Drug Discovery USA) using a 4-parameter logistic fit. HTRF ratio calculation was performed using the following formula: […]
where em665nm represents the measured emission at 665 nm upon excitation at 337 nm and em620nm the measured emission at 620 nm upon excitation at 337 nm. The 4 parameter logistic fitting model was performed using the following formula: […]
where Y represents the HTRF ratio response (as defined previously), X the compound concentration in μM, Ymin the minimum response plateau, Ymax the maximum response plateau, IC50 the concentration of agonist that gives a response half way between Ymin and Ymax and HillSlope the steepness of the family of curves. No fitting model constraints was applied on Ymin, or Ymax whilst IC50>0 and −0.5>HillSlope>−3
Ki values were derived from the geometric mean of the IC50 values using the Cheng-Prusoff transformation:
where [L] represents the concentration of fluorescent probe in μM, Kd the affinity (binding constant) of the fluorescent probe in units of μM and IC50 the concentration of agonist that gives a response halfway between Ymin and Ymax (as described in 1.2.1)
Analysis and IC50 values were derived using KNIME analytics (KNIME, Zurich) transformation and fitting within Collaborative Drug Discovery (Collaborative Drug Discovery, USA) as described in 1.2.1. Ki values were derived from the geometric mean of the IC50 values using the Cheng-Prusoff transformation as described in 2.2.2. Data was visualized in GraphPad Prism 8.1.2 (GraphPad, USA) and reported as mean and standard deviation. Microsoft Office Excel 2012 (Redmond, WA) was used for calculation of mean and standard deviation.
IC50 data are reported in Table 3 for compounds in Table 1. In Table 3 below, According to the code, A represents a IC50 value of ≤0.1 μM, B represents a IC50 value≥0.1 μM and ≤1 μM, C represents an IC50 value>1 μM.

LS174T = assay: GI50 growth inhibition, CyQUANT, LS174T; assay type: cell-based; settings: Homo sapiens, LS174T cells, 120 to 168 hours
Protocol: as §1, §2

T1 sequence (P48729 whole entry): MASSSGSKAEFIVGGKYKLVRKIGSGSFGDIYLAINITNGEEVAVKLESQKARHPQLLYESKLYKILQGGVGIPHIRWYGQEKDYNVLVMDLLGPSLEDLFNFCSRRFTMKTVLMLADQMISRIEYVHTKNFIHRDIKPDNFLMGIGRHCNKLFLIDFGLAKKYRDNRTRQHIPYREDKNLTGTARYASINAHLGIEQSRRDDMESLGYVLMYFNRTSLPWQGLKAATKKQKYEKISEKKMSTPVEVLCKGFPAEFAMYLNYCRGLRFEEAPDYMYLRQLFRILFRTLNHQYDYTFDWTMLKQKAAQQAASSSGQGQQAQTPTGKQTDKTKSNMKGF
T1 sequence (Q96SW2 whole entry): as the sequence (Q96SW2 whole entry) above
T1 sequence (Q16531 2-1140 partner limits assumed): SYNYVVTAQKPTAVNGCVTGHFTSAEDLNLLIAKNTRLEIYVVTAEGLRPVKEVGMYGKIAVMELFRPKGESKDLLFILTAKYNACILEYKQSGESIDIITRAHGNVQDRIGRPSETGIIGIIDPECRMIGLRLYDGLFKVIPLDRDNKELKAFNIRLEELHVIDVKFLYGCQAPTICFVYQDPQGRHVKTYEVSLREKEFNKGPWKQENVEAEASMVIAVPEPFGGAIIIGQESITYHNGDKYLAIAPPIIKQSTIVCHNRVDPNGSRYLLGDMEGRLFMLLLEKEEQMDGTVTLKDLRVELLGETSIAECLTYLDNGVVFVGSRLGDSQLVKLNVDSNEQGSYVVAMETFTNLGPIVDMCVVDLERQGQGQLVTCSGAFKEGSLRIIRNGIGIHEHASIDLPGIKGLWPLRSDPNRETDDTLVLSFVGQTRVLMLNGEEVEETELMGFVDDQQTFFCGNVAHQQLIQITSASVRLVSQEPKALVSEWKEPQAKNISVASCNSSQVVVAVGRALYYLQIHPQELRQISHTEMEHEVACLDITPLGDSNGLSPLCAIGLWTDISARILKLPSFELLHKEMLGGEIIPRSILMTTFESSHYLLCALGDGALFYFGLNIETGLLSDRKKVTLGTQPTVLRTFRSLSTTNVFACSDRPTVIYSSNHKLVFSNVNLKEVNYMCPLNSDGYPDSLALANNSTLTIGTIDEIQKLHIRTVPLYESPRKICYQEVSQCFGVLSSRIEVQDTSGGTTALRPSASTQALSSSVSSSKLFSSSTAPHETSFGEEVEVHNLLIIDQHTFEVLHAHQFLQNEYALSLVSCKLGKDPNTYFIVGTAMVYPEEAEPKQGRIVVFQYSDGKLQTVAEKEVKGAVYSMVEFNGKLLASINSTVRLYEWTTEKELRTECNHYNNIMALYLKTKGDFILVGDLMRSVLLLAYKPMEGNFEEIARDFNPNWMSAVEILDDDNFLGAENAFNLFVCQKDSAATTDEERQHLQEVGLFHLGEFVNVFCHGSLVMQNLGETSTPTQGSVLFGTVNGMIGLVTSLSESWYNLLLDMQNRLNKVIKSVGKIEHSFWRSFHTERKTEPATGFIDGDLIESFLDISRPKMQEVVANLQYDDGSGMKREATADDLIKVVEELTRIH

Compound | DC50 (CK1α) | GI50 (SKCO1) | IC50 (CRBN/DDB1) | GI50 (GP2D) | GI50 (CW2) | GI50 (LS180) | GI50 (LS174T)
O=C1CCC(N2Cc3cc(NC(=O)c4cn(-c5ccccc5)cn4)ccc3C2=O)C(=O)N1 (stereo not drawn) [Compound 109, N-(2-(2,6-dioxopiperidin-3-yl)-1-oxoisoindolin-5-yl)-1-phenyl-1H-imidazole-4-carboxamide] | < 0.1 µM | < 100 nM | 100 to 1000 nM | < 100 nM | < 100 nM | 100 to 1000 nM | < 100 nM
CCc1ccccc1C(=O)Nc1ccc2c(c1)CN(C1CCC(=O)NC1=O)C2=O (stereo not drawn) [Compound 141, N-(2-(2,6-dioxopiperidin-3-yl)-1-oxoisoindolin-5-yl)-2-ethylbenzamide] | 0.1 to 1 µM |  | 100 to 1000 nM |  |  |  | 
O=C1CCC(N2Cc3cc(NC(=O)c4cccc(F)c4)ccc3C2=O)C(=O)N1 (stereo not drawn) [Compound 142, N-(2-(2,6-dioxopiperidin-3-yl)-1-oxoisoindolin-5-yl)-3-fluorobenzamide] | < 0.1 µM |  | 100 to 1000 nM |  |  |  | 
Cc1cc(CC(=O)Nc2ccc3c(c2)CN(C2CCC(=O)NC2=O)C3=O)ccc1Cl (stereo not drawn) [Compound 144, 2-(4-chloro-3-methylphenyl)-N-(2-(2,6-dioxopiperidin-3-yl)-1-oxoisoindolin-5-yl)acetamide] | 0.1 to 1 µM |  | 100 to 1000 nM |  |  |  | 
COCc1nc(C(=O)Nc2ccc3c(c2)CN(C2CCC(=O)NC2=O)C3=O)cn1-c1ccccc1 (stereo not drawn) [Compound 157, N-(2-(2,6-dioxopiperidin-3-yl)-1-oxoisoindolin-5-yl)-2-(methoxymethyl)-1-phenyl-1H-imidazole-4-carboxamide] | < 0.1 µM |  | ≤ 100 nM |  |  |  | 

More lines, main results first:

DC50 (CK1α) | GI50 (SKCO1) | IC50 (CRBN/DDB1) | Compound | GI50 (GP2D) | GI50 (CW2) | GI50 (LS180) | GI50 (LS174T)
0.1 to 1 µM |  | 100 to 1000 nM | O=C1CCC(N2Cc3cc(NC(=O)c4ccccc4F)ccc3C2=O)C(=O)N1 (stereo not drawn) [Compound 143, N-(2-(2,6-dioxopiperidin-3-yl)-1-oxoisoindolin-5-yl)-2-fluorobenzamide] |  |  |  | 
< 0.1 µM |  | 100 to 1000 nM | O=C1CCC(N2Cc3cc(NC(=O)c4ccccc4Cl)ccc3C2=O)C(=O)N1 (stereo not drawn) [Compound 148] |  |  |  | 
< 0.1 µM |  | ≤ 100 nM | Cc1nc(C(=O)Nc2ccc3c(c2)CN(C2CCC(=O)NC2=O)C3=O)cn1-c1ccccc1 (stereo not drawn) [Compound 155, N-(2-(2,6-dioxopiperidin-3-yl)-1-oxoisoindolin-5-yl)-2-methyl-1-phenyl-1H-imidazole-4-carboxamide] |  |  |  | 
< 0.1 µM |  | 100 to 1000 nM | O=C1CCC(N2Cc3cc(NC(=O)c4cn(-c5ccccc5)c(C(F)(F)F)n4)ccc3C2=O)C(=O)N1 (stereo not drawn) [Compound 156, N-(2-(2,6-dioxopiperidin-3-yl)-1-oxoisoindolin-5-yl)-1-phenyl-2-(trifluoromethyl)-1H-imidazole-4-carboxamide] |  |  |  | 
< 0.1 µM |  | 100 to 1000 nM | Cc1c(C(=O)Nc2ccc3c(c2)CN(C2CCC(=O)NC2=O)C3=O)ncn1-c1ccccc1 (stereo not drawn) [Compound 158, N-(2-(2,6-dioxopiperidin-3-yl)-1-oxoisoindolin-5-yl)-5-methyl-1-phenyl-1H-imidazole-4-carboxamide] |  |  |  | 
0.1 to 1 µM |  | 100 to 1000 nM | COCc1c(C(=O)Nc2ccc3c(c2)CN(C2CCC(=O)NC2=O)C3=O)ncn1-c1ccccc1 (stereo not drawn) [Compound 159, N-(2-(2,6-dioxopiperidin-3-yl)-1-oxoisoindolin-5-yl)-5-(methoxymethyl)-1-phenyl-1H-imidazole-4-carboxamide] |  |  |  | 

Reference: patent US20250115582A1, “MOLECULAR GLUE DEGRADERS AND METHODS OF USING THE SAME” (Monte Rosa Therapeutics, Inc., priority 2022, published 2025)
